PubChem BioAssay AID248 (DTP/NCI, 2004)
Several values for one entry are separate records, joined by “and”; a condition that tells them apart may be missing. Identical values can stand only once. Inconclusive results and toxic doses are left out. Rule as the data show it: active = T/C of 150% or more; inactive = T/C below 125%.

Test system: L1210 leukemia ip in BDF1 mice, survival T/C
Experiment: NCI In Vivo Anticancer Drug Screen. Data for tumor model L1210 Leukemia (intraperitoneal) in B6D2F1 (BDF1) mice
Conditions: endpoint: mean survival time, higher = longer survival
How it was run: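 Each compound was tested against a transplantable tumor grown in mice. The endpoint was survival, with treated animals benchmarked against vehicle controls as a simple ratio.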

[1] = dose: 100.0 mg/kg/injection, schedule: Q04DX003 (ip), vehicle: Klucel (hydroxypropylcellulose) (HPC)
[2] = dose: 200.0 mg/kg/injection, schedule: Q04DX003 (ip), vehicle: Klucel (hydroxypropylcellulose) (HPC)
[3] = dose: 400.0 mg/kg/injection, schedule: Q04DX003 (ip), vehicle: Klucel (hydroxypropylcellulose) (HPC)
[4] = dose: 100.0 mg/kg/injection, schedule: Q01DX001 (ip), vehicle: saline
[5] = dose: 100.0 mg/kg/injection, schedule: Q04DX003 (ip), vehicle: saline
[6] = dose: 200.0 mg/kg/injection, schedule: Q01DX001 (ip), vehicle: saline
[7] = dose: 200.0 mg/kg/injection, schedule: Q04DX003 (ip), vehicle: saline
[8] = dose: 400.0 mg/kg/injection, schedule: Q01DX001 (ip), vehicle: saline
[9] = dose: 400.0 mg/kg/injection, schedule: Q04DX003 (ip), vehicle: saline
[10] = dose: 25.0 mg/kg/injection, schedule: Q01DX009 (ip), vehicle: Klucel (hydroxypropylcellulose) (HPC)
[11] = dose: 50.0 mg/kg/injection, schedule: Q01DX009 (ip), vehicle: Klucel (hydroxypropylcellulose) (HPC)
[12] = dose: 100.0 mg/kg/injection, schedule: Q01DX009 (ip), vehicle: Klucel (hydroxypropylcellulose) (HPC)
[13] = dose: 100.0 mg/kg/injection, schedule: Q01DX001 (ip), vehicle: Klucel (hydroxypropylcellulose) (HPC)
[14] = dose: 200.0 mg/kg/injection, schedule: Q01DX001 (ip), vehicle: Klucel (hydroxypropylcellulose) (HPC)
[15] = dose: 200.0 mg/kg/injection, schedule: Q01DX009 (ip), vehicle: Klucel (hydroxypropylcellulose) (HPC)
[16] = dose: 100.0 mg/kg/injection, schedule: Q04DX003 (ip), vehicle: saline with Tween-80
[17] = dose: 400.0 mg/kg/injection, schedule: Q04DX003 (ip), vehicle: saline with Tween-80
[18] = dose: 12.5 mg/kg/injection, schedule: Q04DX003 (ip), vehicle: saline with Tween-80

Measured: T/C

O=[N+]([O-])c1ccc(/C=C/c2ncccn2)o1
inactive: [1] 97 % of control | [2] 103 % of control | [3] 97 % of control

Nc1ncnc2c1cnn2CCCl
inactive: [4] 101 % of control | [5] 106 % of control | dose: 132.0 mg/kg/injection, schedule: Q04DX003 (ip), vehicle: saline 104 % of control and 123 % of control | [6] 101 % of control | [7] 102 % of control and 124 % of control | dose: 300.0 mg/kg/injection, schedule: Q04DX003 (ip), vehicle: saline 104 % of control | [8] 102 % of control | [9] 101 % of control

CCSC(Sc1ccccc1)C(SCC)C(OC(=O)c1ccccc1)C(OC(=O)c1ccccc1)C(COC(=O)c1ccccc1)OC(=O)c1ccccc1 (stereo not given)
inactive: dose: 75.0 mg/kg/injection, schedule: Q01DX001 (ip), vehicle: other 95 % of control | dose: 150.0 mg/kg/injection, schedule: Q01DX001 (ip), vehicle: other 90 % of control | dose: 300.0 mg/kg/injection, schedule: Q01DX001 (ip), vehicle: other 94 % of control

CC[CH2][Sn]([CH2]CC)[CH2]CC.CC[CH2][Sn]([CH2]CC)[CH2]CC
inactive: dose: 12.5 mg/kg/injection, schedule: Q01DX009 (sc), vehicle: olive oil, sesame oil, peanut oil 97 % of control | dose: 25.0 mg/kg/injection, schedule: Q01DX009 (sc), vehicle: olive oil, sesame oil, peanut oil 100 % of control | dose: 25.0 mg/kg/injection, schedule: Q04DX002 (sc), vehicle: olive oil, sesame oil, peanut oil 102 % of control | dose: 50.0 mg/kg/injection, schedule: Q04DX002 (sc), vehicle: olive oil, sesame oil, peanut oil 102 % of control | dose: 100.0 mg/kg/injection, schedule: Q04DX002 (sc), vehicle: olive oil, sesame oil, peanut oil 115 % of control

CC1(C)NC(=O)C2CC21C (stereo not given)
inactive: dose: 100.0 mg/kg/injection, schedule: Q04DX002 (ip), vehicle: saline 91 % of control

Clc1cc(C(Cl)(Cl)Cl)ccc1C(Cl)(Cl)Cl
inactive: [10] 89 % of control | [11] 92 % of control | [12] 90 % of control

O=C(O)c1cc(-c2ccc(Cl)cc2)nc2c(Cl)cccc12
inactive: dose: 20.0 mg/kg/injection, schedule: Q01DX009 (ip), vehicle: Klucel (hydroxypropylcellulose) (HPC) 95 % of control | dose: 20.0 mg/kg/injection, schedule: Q04DX003 (ip), vehicle: Klucel (hydroxypropylcellulose) (HPC) 107 % of control | dose: 40.0 mg/kg/injection, schedule: Q01DX009 (ip), vehicle: Klucel (hydroxypropylcellulose) (HPC) 103 % of control | dose: 40.0 mg/kg/injection, schedule: Q04DX003 (ip), vehicle: Klucel (hydroxypropylcellulose) (HPC) 100 % of control | dose: 80.0 mg/kg/injection, schedule: Q01DX009 (ip), vehicle: Klucel (hydroxypropylcellulose) (HPC) 108 % of control | dose: 80.0 mg/kg/injection, schedule: Q04DX003 (ip), vehicle: Klucel (hydroxypropylcellulose) (HPC) 97 % of control

C/C(=C\C(C)(C)C(C)(C)C)C(C)(C)C
inactive: dose: 50.0 mg/kg/injection, schedule: Q04DX002 (ip), vehicle: saline with Tween-80 100 % of control | dose: 100.0 mg/kg/injection, schedule: Q04DX002 (ip), vehicle: saline with Tween-80 95 % of control | dose: 200.0 mg/kg/injection, schedule: Q04DX002 (ip), vehicle: saline with Tween-80 92 % of control | dose: 400.0 mg/kg/injection, schedule: Q04DX002 (ip), vehicle: saline with Tween-80 92 % of control

O=C1C(Cl)=C(Nc2nc3ccccc3s2)C(=O)c2ccccc21
inactive: [13] 100 % of control | [14] 94 % of control

Cc1ccc(C2NC(=O)c3ccccc3N2)c(C)c1 (stereo not given)
inactive: [11] 100 % of control | [12] 94 % of control and 99 % of control | [1] 103 % of control | dose: 150.0 mg/kg/injection, schedule: Q01DX009 (ip), vehicle: Klucel (hydroxypropylcellulose) (HPC) 93 % of control | [15] 106 % of control | [2] 95 % of control | dose: 400.0 mg/kg/injection, schedule: Q01DX009 (ip), vehicle: Klucel (hydroxypropylcellulose) (HPC) 96 % of control | [3] 95 % of control

O=C(CC(=O)Nc1ccc([N+](=O)[O-])cc1)Nc1ccc([N+](=O)[O-])cc1
inactive: [16] 87 % of control | [17] 92 % of control

Cc1cccc(CN2CCN(C(c3ccccc3)c3ccc(Cl)cc3)CC2)c1 (stereo not given)
inactive: [10] 100 % of control | dose: 25.0 mg/kg/injection, schedule: Q04DX003 (ip), vehicle: Klucel (hydroxypropylcellulose) (HPC) 100 % of control | [11] 100 % of control | dose: 50.0 mg/kg/injection, schedule: Q04DX003 (ip), vehicle: Klucel (hydroxypropylcellulose) (HPC) 110 % of control | [12] 94 % of control | [1] 105 % of control | [15] 87 % of control | [2] 118 % of control | [3] 89 % of control

C/C(=N/O)c1ccc(/C(C)=N/O)cc1
inactive: dose: 75.0 mg/kg/injection, schedule: Q01DX009 (ip), vehicle: saline with Tween-80 104 % of control | [16] 95 % of control | dose: 150.0 mg/kg/injection, schedule: Q01DX009 (ip), vehicle: saline with Tween-80 107 % of control | dose: 200.0 mg/kg/injection, schedule: Q01DX009 (ip), vehicle: saline with Tween-80 107 % of control | dose: 200.0 mg/kg/injection, schedule: Q04DX003 (ip), vehicle: saline with Tween-80 96 % of control | [17] 95 % of control

C[N+](C)(C)C1(Cc2ccc(F)cc2)c2ccccc2-c2ccccc21
inactive: dose: 6.25 mg/kg/injection, schedule: Q01DX009 (ip), vehicle: saline with Tween-80 88 % of control | dose: 6.25 mg/kg/injection, schedule: Q04DX002 (ip), vehicle: saline with Tween-80 98 % of control | dose: 6.25 mg/kg/injection, schedule: Q04DX003 (ip), vehicle: saline with Tween-80 90 % of control | dose: 12.5 mg/kg/injection, schedule: Q04DX002 (ip), vehicle: saline with Tween-80 115 % of control | [18] 90 % of control | dose: 25.0 mg/kg/injection, schedule: Q01DX009 (ip), vehicle: saline with Tween-80 88 % of control | dose: 25.0 mg/kg/injection, schedule: Q04DX002 (ip), vehicle: saline with Tween-80 98 % of control | dose: 25.0 mg/kg/injection, schedule: Q04DX003 (ip), vehicle: saline with Tween-80 90 % of control

O=C1CSC(=O)N1c1ccccc1
inactive: dose: 100.0 mg/kg/injection, schedule: Q01DX001 (ip), vehicle: saline with Tween-80 107 % of control | [5] 93 % of control | dose: 200.0 mg/kg/injection, schedule: Q01DX001 (ip), vehicle: saline with Tween-80 94 % of control | [7] 100 % of control | dose: 400.0 mg/kg/injection, schedule: Q01DX001 (ip), vehicle: saline with Tween-80 98 % of control | [9] 89 % of control

CC[S][Hg][Cl]
inactive: dose: 3.0 mg/kg/injection, schedule: Q01DX009 (ip), vehicle: saline with Tween-80 92 % of control | dose: 6.0 mg/kg/injection, schedule: Q01DX009 (ip), vehicle: saline with Tween-80 101 % of control | [18] 101 % of control

CCCCCCCCCCCc1nc(N)nc(NCCc2ccccc2)n1
inactive: dose: 12.5 mg/kg/injection, schedule: Q01DX009 (ip), vehicle: Klucel (hydroxypropylcellulose) (HPC) 95 % of control | [10] 89 % of control | dose: 50.0 mg/kg/injection, schedule: Q04DX002 (ip), vehicle: Klucel (hydroxypropylcellulose) (HPC) 87 % of control | dose: 100.0 mg/kg/injection, schedule: Q04DX002 (ip), vehicle: Klucel (hydroxypropylcellulose) (HPC) 93 % of control | dose: 200.0 mg/kg/injection, schedule: Q04DX002 (ip), vehicle: Klucel (hydroxypropylcellulose) (HPC) 97 % of control

CC1CC(C)(C)NC(C2CCC=CO2)N1 (stereo not given)
inactive: dose: 44.0 mg/kg/injection, schedule: Q01DX Z (ip), vehicle: saline 115 % of control | dose: 100.0 mg/kg/injection, schedule: Q01DX Z (ip), vehicle: saline 107 % of control

CCCCCCCCCCCSCCSCCSCCCCCCCCCCC
inactive: [13] 88 % of control | [14] 95 % of control | dose: 400.0 mg/kg/injection, schedule: Q01DX001 (ip), vehicle: Klucel (hydroxypropylcellulose) (HPC) 90 % of control

CCC(=O)CC(C)(C)C
inactive: [4] 92 % of control | [6] 97 % of control | [8] 100 % of control
